This is an account of results in US20160296606A1, “Cellular Factor-Containing Solution Compositions for the Treatment of Rhinovirus Infection and Symptoms” (Noveome Biotherapeutics, Inc., priority 2015, published 2016).

Where a name gives a salt, the structure may show the parent alone.

The subject of data set [1] is irritant (TPA) skin inflammation. The data set is described as follows: Intralesional injection in irritant TPA skin (ear) inflammation in mice. Format: in vivo. As for the experimental part:
Method: Intralesional injection into the ear was given once daily to the following groups: 1. TPA+intralesional control; 2. TPA+intralesional ACCS; 3. TPA+intralesional kenalog (10 mg/ml) (a potent intralesional corticosteroid); 4. ACCS intralesional injection alone; 5. Saline sham injections to the normal untreated ear. The endpoints for the study were ear thickness and ear weight at the end of the experiment. The thicker the ear and the increased weight gain correlates with the degree of inflammation.

Data set [2] deals with vascular permeability (histamine-induced). The data set is described as follows: Evans Blue assay of vascular permeability, histamine with ACCS or CPM (Example 6). In kind it is in vivo, rats (Sprague-Dawley). As to conditions: 198 μg total protein ACCS or 50 μg CPM. As for the experimental part:
Method: […] The Evan's Blue dye binds to albumin and other plasma proteins present in the blood and circulates throughout the animal's entire vascular system. Increased vascular permeability results in extravasation from blood vessels and capillaries of the Evans Blue dye bound to plasma protein. […] After approximately 20 min, the animals were sacrificed, and an area of skin that included the entire injection site was removed with punch biopsy.

Data set [3] shares this test system. The data set is described as follows: Miles assay, Evans Blue dye extravasation after intradermal injection (Example 5). The settings on record: 1 μg histamine alone intradermally (inducer of vascular permeability). Format: in vivo, rat.
Method: Method: One hundred μL of 5% Evans Blue Dye was administered intravenously to an approximately 260 gram male rat via a jugular vein catheter. The Evans Blue dye binds to albumin and other proteins present in the blood and circulates throughout the animal's entire vascular system. One hundred μL of various test articles were then injected intradermally on the flank of the animal forming a small vesicular bleb of the injected article under on the skin surface. Changes in local vascular permeability were observed by the development of a blue spot corresponding to the Evans Blue bound protein extravasate at the injection site. Results were recorded qualitatively through photograph. The changes in Evans Blue Dye extravasation was quantitatively measured by the excision of the blue skin sample after animal sacrifice and placing the excised skin sample in 1 mL of formamide in order to extract the dye. The dye was extracted over 48 hours at 60° C. The extracted dye was then read on a plate reader for absorbance measurement at 630 nm.
The local extravasation of protein-bound Evans Blue Dye at the site of injection is correlated with the increase in vascular permeability. […] Saline and ACCS were also injected alone to serve as negative controls.

For `CC1(C)O[C@@H]2C[C@H]3[C@@H]4CCC5=CC(=O)C=C[C@]5(C)[C@@]4(F)[C@@H](O)C[C@]3(C)[C@]2(C(=O)CO)O1` [kenalog], in data set [1] (intralesional injection 10 mg/ml into mouse ear), the injection site finding result is “induced a hematoma at the site of injection”. Moreover, the “inflammation induced by TPA (ear thickness)” value in data set [1] (intralesional injection into the ear once daily, vs TPA+control) is “not a substantial difference in ear thickness”. Further, the ear weight result in data set [1] (intralesional injection once daily, compared with TPA+control) was “no difference in ear weight”.
As to `CN(C)CCC(c1ccc(Cl)cc1)c1ccccn1` (centres unmarked) [CPM, chlorpheniramine maleate], the “ABS 630 nm/μg tissue” value in data set [2] (histamine dose 0.05 μg intradermal) was 0.07 ABS 630 nm/μg tissue; in data set [2] (histamine dose 0.5 μg intradermal) it was 0.10 ABS 630 nm/μg tissue; in data set [2] (histamine dose 1 μg intradermal), 0.10 ABS 630 nm/μg tissue; in data set [2] (histamine dose 3 μg intradermal), 0.11 ABS 630 nm/μg tissue.
As to `NCCc1c[nH]cn1` [histamine], in data set [3], the “OD 630 absorbance of extracted Evans Blue dye from tissue samples” value turned out to be 0.495 OD units.
